Biological target: T1, PARP (Mus musculus, UniProt P11103)
T1 construct: endogenous in cells; host or cells: RAW mouse macrophages
Assay: PARP activation in peroxynitrite-stimulated cultured macrophages, whole-cell based assay (3H-NAD+ incorporation)
Details: RAW mouse macrophages, peroxynitrite-induced PARP activation, 10 min pretreatment; for inhibition at 0.3 µM: 300 nM; for inhibition at 0.1 µM: 100 nM
Description: RAW mouse macrophages were cultured in DMEM medium with high glucose and supplemented with 10% fetal bovine serum. Cells were used at 80% confluence in 12-well plates. Cells were pretreated with various concentrations (100 nM-1 μM) of a Tetracyclic Benzamide Derivative for 10 min. Peroxynitrite, a prototypical oxidant which induces DNA single strand breakage, was used to induce PARP activation. Peroxynitrite was diluted in phosphate buffered saline (PBS) (pH 11.0) and added to the cells in a bolus of 50 μl. Cells were then incubated for 20 min. […] After the 20 min incubation, the cells were spun, the medium was aspirated and the cells were resuspended in 0.5 mL assay buffer (56 mM HEPES pH 7.5, 28 mM KCl, 28 mM NaCl, 2 mM MgCl2, 0.01% w/v digitonin and 0.125 μM NAD^+ and 0.5 μCi/ml ^3H-NAD^+). Following an incubation in assay buffer, (10 min at 37° C.), PARP activity was measured as follows: 200 μl ice cold 50% w/v TCA was added and the samples were incubated for 4 h at 4° C. Samples were then spun (10 min @ 10,000 g) and pellets washed twice with ice cold 5% w/v TCA and solubilized overnight in 250 μl 2% w/v SDS/0.1 N NaOH at 37° C. The contents of the tubes were added to 6.5 mL ScintiSafe Plus scintillation liquid (Fisher Scientific) and radioactivity was determined using a liquid scintillation counter (Wallac, Gaithersburg, Md.).

T1 sequence (P11103 whole entry): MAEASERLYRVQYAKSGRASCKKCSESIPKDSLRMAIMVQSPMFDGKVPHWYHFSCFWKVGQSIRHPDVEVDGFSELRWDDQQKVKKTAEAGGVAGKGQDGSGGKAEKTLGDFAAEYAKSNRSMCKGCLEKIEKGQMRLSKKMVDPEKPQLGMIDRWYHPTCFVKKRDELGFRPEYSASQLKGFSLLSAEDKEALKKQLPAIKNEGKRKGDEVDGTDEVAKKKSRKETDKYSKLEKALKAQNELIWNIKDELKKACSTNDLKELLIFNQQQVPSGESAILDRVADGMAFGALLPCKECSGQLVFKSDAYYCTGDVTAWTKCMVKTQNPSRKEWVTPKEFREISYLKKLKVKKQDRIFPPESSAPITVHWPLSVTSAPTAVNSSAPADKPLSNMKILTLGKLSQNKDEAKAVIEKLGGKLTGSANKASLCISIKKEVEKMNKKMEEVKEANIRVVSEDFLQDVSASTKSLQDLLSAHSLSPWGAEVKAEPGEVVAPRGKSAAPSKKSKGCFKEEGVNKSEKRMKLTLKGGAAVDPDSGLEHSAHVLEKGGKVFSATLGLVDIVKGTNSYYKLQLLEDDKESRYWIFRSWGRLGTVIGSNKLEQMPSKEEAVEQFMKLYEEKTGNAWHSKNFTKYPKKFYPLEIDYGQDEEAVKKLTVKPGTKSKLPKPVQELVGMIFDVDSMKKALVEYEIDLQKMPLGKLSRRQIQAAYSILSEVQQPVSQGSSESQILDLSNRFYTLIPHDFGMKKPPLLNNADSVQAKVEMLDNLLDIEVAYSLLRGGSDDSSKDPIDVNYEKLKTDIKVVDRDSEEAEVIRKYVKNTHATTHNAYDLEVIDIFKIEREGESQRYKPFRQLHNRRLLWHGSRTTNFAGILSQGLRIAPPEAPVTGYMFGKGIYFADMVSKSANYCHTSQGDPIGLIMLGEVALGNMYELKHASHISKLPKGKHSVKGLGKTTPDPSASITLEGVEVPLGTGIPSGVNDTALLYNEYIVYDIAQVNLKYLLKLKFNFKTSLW

Structure (SMILES) | inhibition at 0.3 µM | inhibition at 1 µM | inhibition at 0.1 µM
O=c1[nH]c2c(c3ccccc13)-c1ccc(S(=O)(=O)NCCCN3CCOCC3)cc1C2 [Compound 11a, 5-Oxo-5,7-dihydro-6H-indeno[2,1-c]isoquinoline-9-sulfonic acid (3-morpholin-4-yl-propyl)-amide] | 9% | 70% | –
CC(=O)Oc1nc2c3ccccc3oc2c2ccccc12 [Compound 16g, Acetic acid 11-oxa-6-aza-benzo[a]fluoren-5-yl ester] | 66% | 67% | 40%
Cc1ccc2c(n1)oc1c3ccccc3c(=O)[nH]c21 [Compound 26a, 9-Methyl-6H-11-oxa-6,10-diaza-benzo[a]fluoren-5-one] | 54% | 61% | 36%
